A short description of data set [1]: Solubility of the isolated active component. In kind it is physicochemical. Here is the method:
After cultivation by the above method was finished, an equal amount (3 L) of acetone was added to the 3 L culture solution, and extraction was carried out at room temperature for 30 minutes. Acetone was removed from the acetone-containing cultuer solution by an evaporator, and solvent extraction with ethyl acetate was carried out by a separating funnel. The solvent extract was dehydrated by sodium sulfate, and then, evaporated by an evaporator to dryness under reduced poressure to obtain 470 mg of the extract. Subsequently, the extract was adsorbed on a silica gel column, washed with toluene, and active fractions were eluted by toluene/ethyl acetate (8:2). The eluate was concentrated by an evaporator under reduced pressure to obtain 42 mg. The crude matters were subjected to high speed liquid chromatography ("Capsel-Pak C18", Shiseido, solvent: water:acetonitrile = 72:28), and a pure active substance was obtained by isochromatic elution. […] Ultraviolet absorption spectra end 266 nm (water: acetonitrile = 60 : 40) Molecular weight: 368 Thin layer chromatography: Absorbent; HPTLC Kieselgel 60 F 254 (MERK) Developing solvent: hexane : ethyl acetate = 6 : 4 R f value; 0.233 High speed liquid chromatogaphy: Used apparatus; UV detector : Waters 996 (Waters) Pump: HITACHI L―6200 (Hitachi Ltd.) Column: Reversed phase high speed liquid chromatography column for analysis (CAPCELL PAK C18 UG120 5 µ m 4.6 mm ⌀ × 250 mm (Shiseido) Solvent for elution; 30-100 % acetonitrile (linear grudient 20 minutes) Flow rate; 0.8 mL/min Retention time; about 10.5 minutes • Chemical shift values (cf. Fig. 1) in ^1H nuclear magnetic resonance spectra • ^1H―NMR (CDCl3) δ :5.97―6.04 (3H, m), 5.57 (1H, d), 5.02 (1H, d), 4.31 (1H, dd), 4.19 (1H, dd), 3.74 (1H, d), 3.44 (1H, dd), 3.17 (3H, s), 2.96 (1H, d), 2.14 (3H, s) • FAB MASS : 369 (MH^+) • Chemical shift values (cf. Fig. 2) in ^13C nuclear magnetic resonance spectra (600 MH3, CDCL3)

Data set [2] can be described thus: Body weight in the COLON-26 evaluation in vivo (Example 1). Also on record: species or system CDFI mice. The note with it: day 21, COLON-26 mice, control 24.7 g. Here is the method: CDFI mice (female: 4 weeks old) were bought, and colon-26 subcultured in vivo in the subcutaneous tissue was taken out. The colon-26 was minced in a Petridish, and transplanted into the sulcutaneous tissue of CDFI mice in an amount of 10 mg/mouse by a trucker. The transplanted day was assigned day 0, and the size of the tumor and body weight were measured on day 7 and divided into groups by n=4. The size of tumor was calculated as tumor weight by the following formula. (Tumor Weight (mg) = Tumor Volume (mm)^3 =1/2 × Major Axis (mm) × Minor Axis (mm))^2 [formula]
Administration was carried out from day 7 according to the following schedule. Dose was 0.2 mL/mouse, and injected into abdominal cavity. Acetylgliotoxin was dissolved in dimethyl sulfoxide (DMSO) in a concentration of 100 mg/mL, and adjusted to an object concentration (0.5 mg/kg, 1 mg/kg, 10 mg/kg, 20 mg/kg) by 5% Tween 80 (saline solution). In the evaluation of […], 1 mg/kg, injection was carried out every day for 5 days, in the case of 10 mg/kg, injected twice on day 7 and day 8, and in the case of 20 mg/kg, injected once on day 7.

For data set [3], the system named is LX-1 (human lung cancer ). In words: Cytotoxity of acetylgliotoxin by the MTT method. In kind it is cell-based. The note with it: LX-1, 72 hours. Here is the method:
(§1) Antitumor activity of acetylgliotoxin against various cancer cells was measured by the MTT method. Various cancer cells were adjusted to 4.0 × 10^4 cells/mL by using a medium (hereinafter referred to as medium A) composed of RPMI 1640 medium (GIBCO) containing 10% fetal calf serum, and each 0.1 mL of the cancer cells was pipetted into each well of a 96 well microtiter plate. The plate was incubated in a carbon dioxide gas incubator at 37 °C for 20 hours, and each 0.025 mL of samples (test compounds) suitably diluted with the medium A was added. Then, incubation was further carried out in the carbon dioxide gas incubator at 37 °C for 72 hours. Each 0.01 mL of the MTT solution adjusted to 5 mg/mL by using Dulbecco's PBS (-) (Nissui) was added thereto, and incubated in the carbon dioxide gas incubator at 37 °C for 3 hours. Subsequently, each 0.05 mL of 0.01 N HCl/20 % SDS was added. Produced crystals were dissolved, and absorbance at 570 nm was measured by a microplate reader. By comparing the absorbance of the cells treated with the sample in the known concentration with that of non-treated cells, the sample concentration which inhibits multiplication of the cells at the rate of 50% (IC50) was calculated. Apoptosis was determined by incubating the plate in the carbon dioxide gas incubator at 37 °C for 20 hours, adding each 0.025 mL of samples (test compounds) suitably diluted with the medium A, incubating in the carbon dioxide gas incubator at 37 °C for 72 hours, according to the above method, adding nucleus-staining fluorescent dye DAPI (4,6 - diaminodino-2-henylindole) to each well so as to become 0.5 ng/mL, and after leaving at room temperature for 10 minutes, confirming agglomeration of chromosomes by using a fluorescence microscope.
(§2) Human leukemia cells (K 562 : Dainippon Seiyaku), human carcinoma cells of the colon (HCT-15, HCT-116, SW946: Dainippon Seiyaku), human leukemia cells (U 937: Dainippon Seiyaku), human lung cancer cells (LX-1: Biseibutsu Kagaku Kenkyu-sho), mouse leukemia cells (P 388 : Dainippon Seiyaku), mouse carcinoma cells of the colon (colon-26 : Gan Kenkyu-kai, Gan Kenkyu-sho) Table 1

The test system of data set [4] is HCT-15 (human carcinoma of the colon). The data set is described as follows: Cytotoxity of acetylgliotoxin by the MTT method. In kind it is cell-based. The note with it: HCT-15, 72 hours. The method, then:
as §1, §2

A short description of data set [5]: Body weight in the HCT-116 evaluation in vivo (Example 1). Also on record: species or system Balb/c nu/nu mice. Particulars: day 21, HCT-116 mice, control 17.5 g. The method, then: Balb/c nu/nu mice (female: 5 weeks old) were bought, and HCT- 116 subcultured in vivo in the subcutaneous tissue was taken out. The HCT-116 was minced in a Petridish, and transplanted into the sulcutaneous tissue of […] mice in an amount of 30 mg/mouse by a trucker. The transplanted day was assigned day 0, and the size of the tumor and body weight were measured on day 7 and divided into groups by n=2.
Acetylgliotoxin was dissolved in dimethyl sulfoxide (DMSO) in a concentration of 100 mg/mL, and adjusted to an object concentration (0.5 mg/kg, 1 mg/kg, 10 mg/kg, 20 mg/kg) by 5 % Tween 80 (saline solution). In the evaluation of 0.5, 1 mg/kg, injection was carried out every day for 5 days, in the case of 10 mg/kg, injected twice on day 7 and day8, and in the case of 20 mg/kg, injected once on day 7.

Values after ≈ are worked out from the molar mass of the structure shown.

Take `CC(=O)OC1C=CC=C2CC34SSC(CO)(C(=O)N3C21)N(C)C4=O` (stereo not shown) [acetylgliotoxin]: the Solubility entry was “Easily soluble” in data set [1] (in chloroform and dimethyl sulfoxide); “soluble” in data set [1] (in ethyl acetate, acetonitrile, toluene, methanol and acetone); “slightly soluble” in data set [1] (in water). Besides, the “weight” value in data set [2] (0.5 mg/kg×5 i.p.(d7-11)) came to 24.7 g; in data set [2] (1 mg/kg×5 i.p.(d7-11)), 24.9 g; in data set [2] (10 mg/kg×2 i.p.(d7, 8)), 24.1 g; in data set [2] (20 mg/kg×1 i.p.(d7)), 25.2 g; in data set [5] (0.5 mg/kg×5 i.p.(d7-11)), 17.1 g; in data set [5] (1 mg/kg×5 i.p.(d7-11)) it was 17.8 g. The “weight” value in data set [5] (10 mg/kg×2 i.p.(d7, 8)) was 15.8 g; in data set [5] (20 mg/kg×1 i.p. (d7)), 15.9 g. Further, the figures for the IC50 in data set [3] and in data set [4] were 0.074 µg/mL (≈ 0.201 µM) and 0.039 µg/mL (≈ 0.106 µM), respectively.

For the origin of these results see patent publication EP0926242A1, “GLIOTOXIN DERIVATIVES AND ANTICANCER AGENT COMPRISING THE SAME” (priority 1996, dated 1998).
